Results from US10953015B2, “Use of adenosine receptor signaling to regulate P-gp function” (CORNELL UNIVERSITY, priority 2016, dated 2021).

Assays:
P-gp [1] = assay: Ubiquitination of P-gp in primary human brain endothelial cells (immunoprecipitation, IFA); type: cell-based; conditions: 15 minutes
Procedure: FIG. 10A is a western blot showing immunoprecipitation analysis of ubiquitination of P-gp in human primary brain endothelial cells upon activation with Lexiscan® for 15 minutes. P-gp was pulled down with an anti-P-gp antibody and immunoblotted with an anti-ubiquitin antibody. FIG. 10B are immunofluorescence microscopy images depicting ubiquitination of P-gp in human primary brain endothelial cells upon activation with Lexiscan® for 15 minutes. Cells were fixed, permeabilized, and stained with an anti-P-gp (green) and anti-ubiquitin (red) antibody. Nucleus was counterstained with DAPI (blue). The scale bar indicates 25 μm. FIG. 10C is a schematic diagram depicting the mechanism of P-gp down-regulation by Lexiscan®. Upon activation of A2A AR, P-gp is cleaved by MMP9 and secreted to the extracellular space (a), or ubiquitinated and digested by proteasome (b), or can relocate from the soluble fraction to the insoluble fraction (c). These mechanisms may occur independently or in combination.
4 G Sepharose beads were purchased from Invitrogen and incubated with human P-gp antibody (BD Biosciences) overnight at 4° C. using a rocking shaker. Beads were washed twice using lysis buffer containing protease inhibitor, and lysates from primary brain endothelial cells were incubated overnight at 4° C. using a rocking shaker. […]

P-gp [2] = assay: Epirubicin accumulation and P-gp staining in MCF7 cells (fluorescence microscopy); type: cell-based, human; conditions: 1 μM
Procedure: MCF7 cells (human breast cancer cell line) were cultured in 24 well plates until they reached confluency. FIGS. 17A-17C are images of western blots of cells treated with vehicle control (i.e., DMSO) (“D”) or 1 μM of the broad spectrum AR agonist NECA (“N”) (FIG. 17A), 1 μM of the A2A AR agonist Lexiscan® (“L”) (FIG. 17B), or 1 μM of the A2B AR agonist BAY60 (“B”) (FIG. 17C), respectively for 24, 48, 72 hours. Cells were lysed with lysis buffer and expression levels of P-gp, MMP9, or VEGF analyzed by western blot. GAPDH was used as loading a control. FIG. 17D is a graph of experimental results showing that Lexiscan® down-regulates P-gp expression in MCF7 breast cancer cells. MCF7 breast cancer cells were treated with Lex (0.25 μM) concomitant with Rhodamine 123 (“Rho123”). […] Students T test, P<0.001. […] FIG. 17E is a fluorescence microscopy image showing MCF7 breast cancer cells grown on coverslips and treated with vehicle (DMSO, control), or A2 AR agonists, Lexiscan® (1 μM) or A1193 (1 μM) for 15 minutes in the presence of epirubicin. Cells were stained with an antibody to P-gp and mounted with DAPI. FIG. 17F is a graph of the fluorescent intensity quantified from FIG. 17E by measuring the mean fluorescent intensity (“MFI”) of epirubicin (pink) that is present in cell nuclei. ***=P<0.0001.
To further assess the modulation of A2A AR agonists on P-gp expression in MCF7 cells, applicants evaluated the accumulation of the P-gp substrate epirubicin in MCF7 cells. MCF7 cells were treated with DMSO (control), 1 μM Lexiscan®, or 1 μM of the A2A AR agonist A1193. […] In this case, the down-regulation of P-gp expression is equivalent to down-regulation of its function (Kim et al., “A2A Adenosine Receptor Modulates Drug Efflux Transporter P-Glycoprotein at the Blood-Brain Barrier,” J Clin Invest. 126(5):1717-33 (2016), which is hereby incorporated by reference in its entirety).

P-gp [3] = assay: P-gp expression in Caco-2 human tumor cell line (IFA MFI, western blot); type: cell-based; conditions: 1 μM for 30 minutes (IFA), 1, 0.5, 0.1 μM (western blot)
Procedure: FIG. 19A are fluorescence microscopy images of Caco-2 cells (originally isolated from a human primary colonic tumor) grown on coverslips and treated with Lexiscan® (1 μM) or A1193 (1 μM), or DMSO (vehicle) control for 30 minutes. Next, cells were fixed, permeabilized, and stained with an antibody to P-gp. After washing, cells were mounted with DAPI for nuclear staining. FIG. 19B is a graph of the MFI of P-gp. FIG. 19C is a graph of densitometric analysis of a western blot of Caco-2 cells treated with Lexiscan® in varying concentrations (1, 0.5, and 0.1 μM). Densitometric analysis was performed to quantify the amount of P-gp in western blot. Statistics: two tailed student's t test for FIG. 19B, *<0.5.
Applicants also evaluated whether A2A AR agonists can modulate P-gp expression in a human tumor cell line, Caco-2 cells. Briefly, Caco-2 cells (originally isolated from a human tumor) were grown on coverslips and treated with Lexiscan®, A1193, or vehicle control for 30 minutes. Cells were then fixed, permeabilized, and stained with an antibody to P-gp. After washing, cells were mounted with DAPI for nuclear staining (FIG. 19A). The mean fluorescence intensity (MFI) of P-gp was quantified and graphed in FIG. 19B.

P-gp [4] = molecular target: T1, P-gp (Homo sapiens, UniProt P08183); assay: Rho123 uptake assay in primary human brain endothelial cells (HBMVEC); type: cell-based; conditions: agonist 1 μM, Rho123 2.5 μM
T1 construct: in human primary brain endothelial cells, HBMVEC, high P-gp expression was observed; host or cells: HBMVEC (primary human brain endothelial cells)
Procedure: Human brain endothelial cells and primary brain endothelial cells were plated onto 48-well plates until 100% confluence was reached, and media were replaced with fresh media containing Rho123 (2.5 μM) with different concentrations of Lexiscan®, NECA, or PSC833. Reaction was halted by adding 250 μl of ice-cold PBS. Plate was washed with 250 μl of ice-cold PBS 3 times and lysed with lysis buffer. Each sample was analyzed using Synergy Fluometer (Biotek), with excitation at 488 nm and emission at 523 nm. Concentration of Rho123 was analyzed using standard curve created by serial dilution of Rho123. Final concentration of Rho123 was normalized using protein concentration of lysate measured using Bradford assay (Bio-Rad). For microscopic analysis of Rho123 uptake, cells were cultured on coverslip and Rho123 was treated with or without Lexiscan® or NECA with DMSO as control. Reaction was terminated by adding ice-cold PBS and washed with ice-cold PBS 3 times. Cells were fixed with PFA and costained with anti-human P-gp. Cells were visualized with a Zeiss fluorescent microscope and captured with axiovision software. FIG. 4G is a schematic illustration of the Rho123 uptake assay.

T1 sequence (P08183 whole entry): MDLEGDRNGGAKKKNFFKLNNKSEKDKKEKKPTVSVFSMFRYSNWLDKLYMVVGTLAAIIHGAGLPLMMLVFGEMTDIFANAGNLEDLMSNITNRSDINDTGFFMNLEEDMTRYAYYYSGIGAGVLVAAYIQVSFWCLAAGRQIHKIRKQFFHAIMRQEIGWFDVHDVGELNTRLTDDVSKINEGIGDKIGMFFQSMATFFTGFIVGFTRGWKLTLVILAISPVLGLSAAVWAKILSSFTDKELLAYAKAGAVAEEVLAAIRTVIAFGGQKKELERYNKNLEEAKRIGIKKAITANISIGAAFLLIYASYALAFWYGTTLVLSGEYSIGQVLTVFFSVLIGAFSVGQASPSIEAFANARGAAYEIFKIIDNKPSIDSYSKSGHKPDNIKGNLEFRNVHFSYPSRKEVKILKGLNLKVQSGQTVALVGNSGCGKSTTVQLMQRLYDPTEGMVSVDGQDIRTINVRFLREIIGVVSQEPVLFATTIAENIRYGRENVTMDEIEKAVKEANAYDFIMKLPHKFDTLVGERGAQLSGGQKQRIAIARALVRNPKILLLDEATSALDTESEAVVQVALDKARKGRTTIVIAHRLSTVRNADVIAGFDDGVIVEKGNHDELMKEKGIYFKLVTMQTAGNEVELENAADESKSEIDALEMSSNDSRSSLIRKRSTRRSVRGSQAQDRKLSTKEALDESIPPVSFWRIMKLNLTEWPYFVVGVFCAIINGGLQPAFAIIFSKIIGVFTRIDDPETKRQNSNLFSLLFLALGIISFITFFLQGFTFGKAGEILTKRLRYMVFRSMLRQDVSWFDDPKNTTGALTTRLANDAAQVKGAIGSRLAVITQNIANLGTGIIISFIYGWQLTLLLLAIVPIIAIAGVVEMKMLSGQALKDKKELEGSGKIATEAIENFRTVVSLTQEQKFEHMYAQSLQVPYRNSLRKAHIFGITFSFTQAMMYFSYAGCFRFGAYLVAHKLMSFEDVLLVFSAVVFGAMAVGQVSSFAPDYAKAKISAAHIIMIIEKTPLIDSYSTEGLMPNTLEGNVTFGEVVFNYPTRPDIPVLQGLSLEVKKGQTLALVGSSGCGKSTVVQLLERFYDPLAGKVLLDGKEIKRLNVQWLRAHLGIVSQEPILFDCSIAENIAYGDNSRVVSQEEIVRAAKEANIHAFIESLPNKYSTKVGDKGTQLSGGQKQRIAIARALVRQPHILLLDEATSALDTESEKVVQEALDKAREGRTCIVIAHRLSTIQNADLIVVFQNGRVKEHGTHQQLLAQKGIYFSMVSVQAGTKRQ

SMILES | Ubiquitinylation of P-gp (P-gp [1]) | P-gp expression (antibody staining) (P-gp [2]; 15 minutes) | Epirubicin accumulation (MFI in cell nuclei) (P-gp [2]; 15 minutes in the presence of epirubicin) | P-gp expression (P-gp [3]) | Rho123 uptake / P-gp function (P-gp [4])
CNC(=O)c1cnn(-c2nc(N)c3ncn([C@@H]4O[C@H](CO)[C@@H](O)[C@H]4O)c3n2)c1 [Lexiscan®, 1-[6-amino-9-[(2R,3R,4S,5R)-3,4-dihydroxy-5-(hydroxymethyl)oxolan-2-yl]purin-2-yl]-N-methylpyrazole-4-carboxamide] | induced increased ubiquitinylation of P-gp compared with vehicle control | down-regulate P-gp expression | retained more epirubicin than those treated with control | down-regulates P-gp expression in Caco-2 | –
CCNC(=O)[C@H]1O[C@@H](n2cnc3c(N)ncnc32)[C@H](O)[C@@H]1O [NECA, (2S,3S,4R,5R)-5-(6-aminopurin-9-yl)-N-ethyl-3,4-dihydroxyoxolane-2-carboxamide] | – | – | – | – | showed a trend in P-gp suppression, but it did not reach statistical significance
